Results reported in patent US11981953B2, “Method to screen compounds for antifungal activity and pharmaceutical compositions and methods to treat fungal diseases by inhibiting spore germination” (WISCONSIN ALUMNI RESEARCH FOUNDATION, priority 2018, dated 2024).
Counter-ions that a name gives are not always drawn. Like-named read-outs stand apart in the source and are kept apart here.

What was measured:
[1] = test system: Cryptococcus neoformans spore germination; experiment: High throughput nanoluciferase screen of spore germination (L1300 Selleck FDA-Approved Drug Library); type: cell-based; settings: signal relative to negative control
Text: (§1) To identify inhibitors of Cryptococcus neoformans spore germination, a high throughput screen was developed that utilizes a nanoluciferase construct to monitor whether spores germinate in the presence of inhibitor. Briefly a protein luciferase construct was created resulting in a low luciferase signal for non-germinated spores and a high signal from germinated and replicating cells. The screen was coupled with OD600 readings to monitor the ability of compounds to inhibit yeast replication. The examples focused on FDA-approved drugs, as these drugs have the potential of being repurposed into antifungal therapeutics. To determine whether any FDA-approved drugs were able to inhibit Cryptococcus neoformans spore germination and yeast replication, the aforementioned high throughput screen was performed on the L1300 Selleck FDA-Approved Drug Library containing an array of 1108 compounds. This library of compounds is available commercially from Selleck Chemicals, 14408 W Sylvanfield Drive, Houston, Tex. 77014, USA.
(§2) The screening was successful at identifying known antifungal drugs as inhibitors of yeast replication as indicated by an OD600 signal of less than 75% of the negative control (Table 2). For the purpose of these examples, antifungal drugs were defined as any FDA-approved drug used in the treatment of fungal infections. Of these 23 known antifungal drugs, only six (6) were identified as inhibitors of spore germination, indicated by a luciferase signal of less than 30% of the negative control.

[2] = test system: Cryptococcus neoformans yeast replication; type: cell-based; settings: signal relative to negative control
Text: as §1, §2

[3] = Table 2, antifungal drugs, less than 30% = inhibitor of germination
[4] = Table 2, antifungal drugs, less than 75% = inhibitor of yeast replication
[5] = Table 3, other FDA-approved drugs

Row | Structure (SMILES) | Germination Percent Luciferase Signal [1, 3] [%] | Replication Percent OD600 [2, 4] [%] | Germination Percent Luciferase Signal [1, 5] [%] | Replication Percent OD600 [2, 5] [%]
1 | Clc1ccccc1C(c1ccccc1)(c1ccccc1)n1ccnc1 [Clotrimazole] | 65.9 | 34.1 |  | 
2 | CO[C@H]1C[C@@H]2CC[C@@H](C)[C@@](O)(O2)C(=O)C(=O)N2CCCC[C@H]2C(=O)O[C@H]([C@H](C)C[C@@H]2CC[C@@H](O)[C@H](OC)C2)CC(=O)[C@H](C)/C=C(\C)[C@@H](O)[C@@H](OC)C(=O)[C@H](C)C[C@H](C)/C=C/C=C/C=C/1C [Rapamycin] |  |  | 18.5 | 61.8
3 | CC[C@@H]([C@H](C)O)n1ncn(-c2ccc(N3CCN(c4ccc(OC[C@@H]5CO[C@@](Cn6cncn6)(c6ccc(F)cc6F)C5)cc4)CC3)cc2)c1=O [Posaconazole] | 167.2 | 46.7 |  | 
4 | CC(=O)N1CCN(c2ccc(OCC3COC(Cn4ccnc4)(c4ccc(Cl)cc4Cl)O3)cc2)CC1 (centres unmarked) [Ketoconazole] | 154.8 | 35.4 |  | 
5 | COc1cccc(N(C)C(=S)Oc2ccc3c(c2)CCCC3)n1 [Liranaftate] | 64.8 | 37.6 |  | 
6 | C[C@@H]1[C@H](O)[C@@H](C)/C=C/C=C/C=C/C=C/C=C/C=C/C=C/[C@H](O[C@@H]2O[C@H](C)[C@@H](O)[C@H](N)[C@@H]2O)C[C@@H]2O[C@](O)(C[C@@H](O)C[C@@H](O)[C@H](O)CC[C@@H](O)C[C@@H](O)CC(=O)O[C@H]1C)C[C@H](O)[C@H]2C(=O)O [Amphotericin B] | 84.6 | 45.7 |  | 
7 | C=C1/C(=C\C=C2/CCC[C@]3(C)[C@@H]([C@H](C)/C=C/[C@H](C)C(C)C)CC[C@@H]23)C[C@@H](O)C[C@@H]1O [Doxercalciferol] |  |  | 17.1 | 55.2
8 | C[C@@H](c1ncncc1F)[C@](O)(Cn1cncn1)c1ccc(F)cc1F [Voriconazole] | 173.9 | 35.8 |  | 
9 | Cc1cccc(N(C)C(=S)Oc2ccc3ccccc3c2)c1 [Tolnaftate] | 60.2 | 47.3 |  | 
10 | CCCCCCCCCCCCCCCC[N+](C)(C)C.[Br-] [Cetrimonium bromide] |  |  | 4.4 | 63.2
11 | C=CC(=O)N1CCC[C@@H](n2nc(-c3ccc(Oc4ccccc4)cc3)c3c(N)ncnc32)C1 [PCl-32765] |  |  | 10.6 | 70.3
12 | Clc1ccc(CSC(Cn2ccnc2)c2ccc(Cl)cc2Cl)cc1 (centres unmarked) [Sulconazole nitrate] | 57.8 | 40.9 |  | 
13 | N=C(N)c1ccc(OCCCCCOc2ccc(C(=N)N)cc2)cc1 [Pentamidine HCl] | 6.5 | 38.3 |  | 
14 | CCCCCCCCCCCC[N+](C)(C)CCOc1ccccc1 [Domiphen bromide] |  |  | 4.4 | 63.9
15 | CCC(C)(C)c1ccc(CC(C)CN2C[C@@H](C)O[C@@H](C)C2)cc1 (some centres unmarked) [Amorolfine HCl] | 88.6 | 41.4 |  | 
16 | Clc1ccc(C(Cn2ccnc2)OCc2ccc(Sc3ccccc3)cc2)c(Cl)c1 (centres unmarked) [Fenticonazole nitrate] | 49.1 | 36.4 |  | 
17 | Cc1cc(N)c2ccccc2[n+]1CCCCCCCCCC[n+]1c(C)cc(N)c2ccccc21 [Dequalinium chloride] |  |  | 22.3 | 47.9
18 | CC(C)(C)C(=O)C(Oc1ccc(Cl)cc1)n1ccnc1 (centres unmarked) [Climbazole] | 151.5 | 38.9 |  | 
19 | Clc1ccc(CCC(Cn2ccnc2)Sc2c(Cl)cccc2Cl)cc1 (centres unmarked) [Butoconazole nitrate] | 41.5 | 33.4 |  | 
